Results published in patent US20120207722A1, “Use Of Adipose Tissue Cells For Initiating The Formation Of A Functional Vascular Network” (CENTRE NATIONAL DE LA RECHERCHE SCIENTIFIQUE, priority 2003, published 2012).

System: hind limb rendered ischemic
Experiment: Hind limb ischemia model, SVF-CULT cells with modified redox state (antimycin and/or PDTC)
Assay type: in vivo, mouse
Conditions: daily i.p. injection (50 μl at 40 nM) after the injection of the SVF-CULT cells
Procedure: The angiogenic potential of the SVF-CULT cells treated, in vitro, with antimycin (40 nM) and/or pyrrolidine dithiocarbamate (PDTC; 0.5 mM) two days before the injection, was analyzed in the model of the mouse with a hind limb rendered ischemic, as described in Example 1. Furthermore, after the injection of the SVF-CULT cells treated with antimycin alone, by adding antimycin to the culture medium, or not treated, the mice were or were not given a daily i.p. injection of antimycin (50 μl at 40 nM). The mice treated similarly with PDTC alone or in combination with antimycin receive no treatment after the injection of cells.
The angiogenic potential of the nontreated SVF-CULT cells, in mice not treated after the injection of the cells, was analyzed in parallel, by way of comparison. The control group was given an injection of ethanol, under the same conditions.
The neovascularization process was analyzed by microangiography and, optionally, by laser Doppler, 8 days after femoral occlusion. The statistical analysis was carried out by means of an ANOVA-type variance test for comparing each parameter (n=5 for each group). A Bonferroni t test subsequently made it possible to identify the groups causing these differences. A value of P<0.05 is considered to be significant.

antimycin
effect on revascularization when administered directly to the animal: no effect
